Test: clinical
Conditions: human, in vivo

SMILES	CL renal
CCN(CC)CCNC(=O)c1cc(Br)c(N)cc1OC [BROMOPRIDE]	1.4 mL/min/kg
CNCC[C@@H](Oc1ccccc1C)c1ccccc1 [ATOMOXETINE]	0.28 mL/min/kg
C[C@@H]([C@@H](O)c1ccc(O)cc1)N1CCC(O)(c2ccccc2)CC1 [TRAXOPRODIL]	1.92 mL/min/kg
NS(=O)(=O)c1cc(C(=O)O)cc(N2CCCC2)c1Oc1ccccc1 [PIRETANIDE]	1.05 mL/min/kg
N=C(N)c1ccc(CNC(=O)[C@@H]2CCN2C(=O)[C@H](NCC(=O)O)C2CCCCC2)cc1	1.6 mL/min/kg
CCN[C@@H]1C[C@H](N)[C@@H](O[C@H]2OC(CN)=CC[C@H]2N)[C@H](O)[C@H]1O[C@H]1OC[C@](C)(O)[C@H](NC)[C@H]1O [NETILMICIN]	0.28 mL/min/kg
COc1cc2nc(N3CCN(C(=O)C4CCCO4)CC3)nc(N)c2cc1OC (centres undefined) [TERAZOSIN]	0.13 mL/min/kg
CN(Cc1cnc2nc(N)nc(N)c2n1)c1ccc(C(=O)N[C@@H](CCC(=O)O)C(=O)O)cc1 [METHOTREXATE]	1.7 mL/min/kg
CC(CCc1ccccc1)NCC(O)c1ccc(O)c(C(N)=O)c1 (centres undefined) [LABETALOL]	0.92 mL/min/kg
NCC1(CC(=O)O)CCCCC1 [GABAPENTIN]	1.7 mL/min/kg
C[C@]12C=CC(=O)C=C1CC[C@@H]1[C@@H]2C(=O)C[C@@]2(C)[C@H]1CC[C@]2(O)C(=O)CO [PREDNISONE]	0.05 mL/min/kg
CC[C@]1(O)C[C@@H]2CN(CCc3c([nH]c4ccccc34)[C@@](C(=O)OC)(c3cc4c(cc3OC)N(C)[C@H]3[C@@](O)(C(=O)OC)[C@H](OC(C)=O)[C@]5(CC)C=CCN6CC[C@]43[C@@H]65)C2)C1 [VINBLASTINE]	2.64 mL/min/kg
C[C@H](N[C@@H](CCc1ccccc1)C(=O)O)C(=O)N1CCC[C@H]1C(=O)O [ENALAPRILAT ANHYDROUS]	1.6 mL/min/kg
CCCCN1CCCCC1C(=O)Nc1c(C)cccc1C (centres undefined) [BUPIVACAINE]	0.09 mL/min/kg
CS(=O)(=O)OCCCCOS(C)(=O)=O [BUSULFAN]	0.2 mL/min/kg
CC(=O)[C@]1(O)Cc2c(O)c3c(c(O)c2[C@@H](O[C@H]2C[C@H](N)[C@H](O)[C@H](C)O2)C1)C(=O)c1ccccc1C3=O [IDARUBICIN]	1.8 mL/min/kg
C[C@H](Cn1cnc2c(N)ncnc21)OCP(=O)(O)O [TENOFOVIR ANHYDROUS]	2.7 mL/min/kg
CCOC(=O)c1ncn2c1CN(C)C(=O)c1cc(F)ccc1-2 [FLUMAZENIL]	0.03 mL/min/kg
CC1(C)S[C@@H]2[C@H](NC(=O)[C@H](NC(=O)N3CCNC3=O)c3ccccc3)C(=O)N2[C@H]1C(=O)O [AZLOCILLIN]	1.67 mL/min/kg
COc1ccc([C@@H]2Sc3ccccc3N(CCN(C)C)C(=O)[C@@H]2OC(C)=O)cc1 [DILTIAZEM]	9.23 mL/min/kg
CC1(C)S[C@@H]2[C@H](NC(=O)C(C(=O)O)c3ccccc3)C(=O)N2[C@H]1C(=O)O (some centres undefined) [CARBENICILLIN]	1.9 mL/min/kg

SMILES	CL renal
CCCc1nc2c(C)cc(-c3nc4ccccc4n3C)cc2n1Cc1ccc(-c2ccccc2C(=O)O)cc1	0.08 mL/min/kg
O=C(O)Cc1ccccc1Nc1c(Cl)cccc1Cl [DICLOFENAC]	0.04 mL/min/kg
CO[C@H]1/C=C/O[C@@]2(C)Oc3c(C)c(O)c4c(c3C2=O)C2=NC3(CCN(CC(C)C)CC3)NC2=C(NC(=O)/C(C)=C\C=C\[C@H](C)[C@H](O)[C@@H](C)[C@@H](O)[C@@H](C)[C@H](OC(C)=O)[C@@H]1C)C4=O [RIFABUTIN]	0.4 mL/min/kg
O=c1[nH]c2ccccc2n1CCCN1CCC(n2c(=O)[nH]c3cc(Cl)ccc32)CC1 [DOMPERIDONE]	0.04 mL/min/kg
CN1C(=O)NC(=O)C(C)(C2=CCCCC2)C1=O (centres undefined) [HEXOBARBITAL]	0.02 mL/min/kg
Cc1cccc(C)c1OCC(C)N (centres undefined) [MEXILETINE]	0.83 mL/min/kg
NS(=O)(=O)c1cc(C2(O)NC(=O)c3ccccc32)ccc1Cl (centres undefined) [CHLORTHALIDONE]	0.98 mL/min/kg
CNS(=O)(=O)CCc1ccc2[nH]cc(C3CCN(C)CC3)c2c1	3.1 mL/min/kg
CN(C)CCC=C1c2ccccc2COc2ccccc21 [DOXEPIN]	0.12 mL/min/kg
S=P(N1CC1)(N1CC1)N1CC1 [THIOTEPA]	0.03 mL/min/kg
COc1nc(C)nc(Cl)c1N=C1NCCN1 [MOXONIDINE]	7.5 mL/min/kg
O.O=P(O)(O)C(O)(Cn1ccnc1)P(=O)(O)O [ZOLEDRONIC ACID]	0.79 mL/min/kg
CCOc1ccccc1OC(c1ccccc1)C1CNCCO1 (centres undefined) [REBOXETINE]	0.04 mL/min/kg
CC(C)(C)NC[C@H](O)COc1nsnc1N1CCOCC1 [TIMOLOL]	1.4 mL/min/kg
CN(C)C(=N)N=C(N)N [METFORMIN]	7.4 mL/min/kg
COC(=O)[C@H]1[C@@H](OC(=O)c2ccccc2)C[C@@H]2CC[C@H]1N2C [COCAINE]	0.4 mL/min/kg
C[C@@H](O)[C@H]1C(=O)N2C(C(=O)O)=C(S[C@H]3C[C@@H](C(=O)N4CC[C@H](NC(=O)CNC(=N)N)C4)N(C)C3)[C@H](C)[C@H]12 [TOMOPENEM]	1.14 mL/min/kg
CC1(C)S[C@@H]2[C@H](NC(=O)[C@H](N)c3ccc(O)cc3)C(=O)N2[C@H]1C(=O)O [AMOXICILLIN]	1.89 mL/min/kg
N#Cc1ccc(C(c2ccc(C#N)cc2)n2cncn2)cc1 [LETROZOLE]	0.02 mL/min/kg
CC(=O)O[C@H]1C(=O)[C@@]2(C)[C@H]([C@H](OC(=O)c3ccccc3)[C@]3(O)C[C@H](OC(=O)[C@H](O)[C@@H](NC(=O)c4ccccc4)c4ccccc4)C(C)=C1C3(C)C)[C@]1(OC(C)=O)CO[C@@H]1C[C@@H]2O [PACLITAXEL]	0.64 mL/min/kg
COc1cc(NCc2ccc3nc(N)nc(N)c3c2C)cc(OC)c1OC [TRIMETREXATE]	0.14 mL/min/kg

SMILES	CL renal
C[C@H]1COc2c(N3CCN(C)CC3)c(F)cc3c(=O)c(C(=O)O)cn1c23.C[C@H]1COc2c(N3CCN(C)CC3)c(F)cc3c(=O)c(C(=O)O)cn1c23.O [LEVOFLOXACIN]	1.41 mL/min/kg
CN(C)CCc1c[nH]c2ccc(C[C@H]3COC(=O)N3)cc12 [ZOLMITRIPTAN]	2.2 mL/min/kg
CC[C@H](C)C(=O)O[C@H]1C[C@H](O)C=C2C=C[C@H](C)[C@H](CC[C@@H](O)C[C@@H](O)CC(=O)O)[C@H]21 [PRAVASTATIN]	6.3 mL/min/kg
Cc1nnc2n1-c1ccc(Cl)cc1C(c1ccccc1)=NC2 [ALPRAZOLAM]	0.15 mL/min/kg
Cc1ccccc1N1C(=O)c2cc(S(N)(=O)=O)c(Cl)cc2NC1C (centres undefined) [METOLAZONE]	1.12 mL/min/kg
COc1ccc2c3c1O[C@H]1C[C@@H](O)C=C[C@@]31CCN(C)C2 [GALANTAMINE]	1.57 mL/min/kg
CC[C@H]1OC(=O)[C@H](C)C(=O)[C@H](C)[C@@H](O[C@@H]2O[C@H](C)C[C@H](N(C)C)[C@H]2O)[C@](C)(OC)C[C@@H](C)C(=O)[C@H](C)[C@H]2N(CCCCn3cnc(-c4cccnc4)c3)C(=O)O[C@]12C [TELITHROMYCIN]	3.14 mL/min/kg
CC1=C(C(=O)O)N2C(=O)[C@@H](NC(=O)[C@H](N)c3ccc(O)cc3)[C@H]2SC1 [CEFADROXIL]	2.33 mL/min/kg
O=C(c1ccccc1)c1ccc2n1CCC2C(=O)O (centres undefined) [KETOROLAC]	0.2 mL/min/kg
CC(C(=O)O)c1ccc(C(=O)c2cccs2)cc1 (centres undefined) [SUPROFEN]	0.04 mL/min/kg
COc1ccc2c3c1O[C@H]1C(=O)CC[C@@]4(O)[C@@H](C2)N(C)CC[C@]314 [OXYCODONE]	1.1 mL/min/kg
CC1(C)S[C@@H]2[C@H](NC(=O)C(c3ccccc3)S(=O)(=O)O)C(=O)N2[C@H]1C(=O)O (some centres undefined) [SULBENICILLIN]	1.3 mL/min/kg
Nc1nc2c(ncn2CCC(CO)CO)c(=O)[nH]1 [PENCICLOVIR]	6.7 mL/min/kg
Cc1ccc(-c2nc3ccc(C)cn3c2CC(=O)N(C)C)cc1 [ZOLPIDEM]	0.04 mL/min/kg
COc1cc(OC)c(C(=O)CCCN2CCCC2)c(OC)c1 [BUFLOMEDIL]	1.3 mL/min/kg
C[C@]12C=CC(=O)C=C1CC[C@@H]1[C@@H]2[C@@H](O)C[C@@]2(C)[C@H]1CC[C@]2(O)C(=O)CO [PREDNISOLONE]	0.6 mL/min/kg
COc1ccc2[nH]c([S+]([O-])Cc3ncc(C)c(OC)c3C)nc2c1 (centres undefined) [OMEPRAZOLE]	0.08 mL/min/kg
CCN(CC)CCNC(=O)c1cc(Cl)c(N)cc1OC [METOCLOPRAMIDE]	1.14 mL/min/kg
CN/C(=N/CCSCc1nc[nH]c1C)NC#N [CIMETIDINE]	7.9 mL/min/kg
CCN1CCC[C@H]1CNC(=O)c1c(OC)ccc(Br)c1OC [REMOXIPRIDE]	0.44 mL/min/kg
CC(=O)N[C@H]1[C@H]([C@H](O)[C@H](O)CO)OC(C(=O)O)=C[C@@H]1N=C(N)N [ZANAMIVIR]	1.39 mL/min/kg

SMILES	CL renal
Cc1cccc(N2CC(CO)OC2=O)c1 (centres undefined) [TOLOXATONE]	0.11 mL/min/kg
Nc1nc(O)c2ncn(COC(CO)CO)c2n1 [GANCICLOVIR]	4.14 mL/min/kg
N[C@@H](C(=O)N[C@@H]1C(=O)N2C(C(=O)O)=C(CSc3c[nH]nn3)CS[C@H]12)c1ccc(O)cc1 [CEFATRIZINE]	2.64 mL/min/kg
Cc1cc(=O)n(-c2ccccc2)n1C [ANTIPYRINE]	0.02 mL/min/kg
NCCCC[C@H](N[C@@H](CCc1ccccc1)C(=O)O)C(=O)N1CCC[C@H]1C(=O)O [LISINOPRIL ANHYDROUS]	1.2 mL/min/kg
CN1C2CCCC1CC(NC(=O)c1nn(C)c3ccccc13)C2 (centres undefined) [GRANISETRON]	1 mL/min/kg
CC(C)NCC(O)COc1ccc(CCOCC2CC2)cc1 (centres undefined) [BETAXOLOL]	0.7 mL/min/kg
NC(=O)c1ncn([C@@H]2O[C@H](CO)[C@@H](O)[C@H]2O)n1 [RIBAVIRIN]	1.7 mL/min/kg
c1ccc(C2(c3ccccc3)CC2C2=NCCN2)cc1 (centres undefined) [CIFENLINE]	4.2 mL/min/kg
NC1CCN(c2c(F)cc3c(=O)c(C(=O)O)cn(C4CC4)c3c2Cl)C1 (centres undefined) [CLINAFLOXACIN]	3.2 mL/min/kg
Cn1c(=O)c2[nH]cnc2n(C)c1=O.O [THEOPHYLLINE]	0.09 mL/min/kg
NC(=O)NO [HYDROXYUREA]	0.54 mL/min/kg
OC(Cn1cncn1)(Cn1cncn1)c1ccc(F)cc1F [FLUCONAZOLE]	0.23 mL/min/kg
CCCNC(=O)NS(=O)(=O)c1ccc(Cl)cc1 [CHLORPROPAMIDE]	0.01 mL/min/kg
COc1cc([C@@H]2c3cc4c(cc3[C@@H](O[C@@H]3O[C@@H]5CO[C@@H](c6cccs6)O[C@H]5[C@H](O)[C@H]3O)[C@H]3COC(=O)[C@H]23)OCO4)cc(OC)c1O [TENIPOSIDE]	0.02 mL/min/kg
O=C1CN=C(c2ccccn2)c2cc(Br)ccc2N1 [BROMAZEPAM]	0.26 mL/min/kg
CCCN(CCC)S(=O)(=O)c1ccc(C(=O)O)cc1 [PROBENECID]	0.03 mL/min/kg
COc1cccc(C2(O)CCCCC2CN(C)C)c1 (centres undefined) [TRAMADOL]	0.98 mL/min/kg
CN1CCC[C@H]1c1cccnc1 [NICOTINE]	3 mL/min/kg
CC(CC(c1ccccc1)c1ccccc1)NC(C)(C)C (centres undefined) [TERODILINE]	0.14 mL/min/kg
Nc1nc(NC2CC2)c2ncn([C@H]3C=C[C@@H](CO)C3)c2n1 [ABACAVIR]	0.15 mL/min/kg
